Measurements reported in patent US10597390B2, “Indoles for use in influenza virus infection” (Janssen Sciences Ireland UC, priority 2014, dated 2020).
Structures can show the parent of a compound that is named as a salt.

Legend:
[1] = system: influenza virus A/Taiwan/1/86 (H1N1); assay: organism not typed; format: cell-based; conditions: MDCK, 72 h, CPE in MDCK cells, three days post-virus exposure, ATPlite
[2] = in vitro; conditions: dog, TOX MDCK CC50

In the case of `N#Cc1cc(F)c(N[C@@H]2CCC[C@@H](NC(=O)c3ccccn3)C2)nc1-c1c[nH]c2c(F)cc(F)cc12` [Compound 209], the melting point is reported as 257 °C, the IC50 [1] is reported as 3 nM and the CC50 at 3 days [2] is reported as over 25000 nM.

Compound `Cn1cc(C(=O)N[C@@H]2CCC[C@H](Nc3nc(-c4c[nH]c5c(F)cc(F)cc45)ncc3F)C2)nn1` [Compound 130] has a melting point of over 300 °C, an IC50 [1] of 32 nM and a CC50 at 3 days [2] of 3200 nM.

`Cc1cn(C)nc1C(=O)N[C@@H]1CCC[C@H](Nc2nc(-c3c[nH]c4c(F)cc(F)cc34)ncc2F)C1` [Compound 136] showed a melting point of 265.1 °C, an IC50 [1] of 3 nM and a CC50 at 3 days [2] of 7600 nM.

Compound `O=C(N[C@@H]1CCC[C@H](Nc2nc(-c3c[nH]c4c(F)cc(F)cc34)ncc2F)C1)c1nnn[nH]1` has a melting point of 270.2 °C.

`Nc1n[nH]c(C(=O)N[C@@H]2CCC[C@H](Nc3nc(-c4c[nH]c5c(F)cc(F)cc45)ncc3F)C2)n1` showed a melting point of over 300 °C.

Work on `Cc1cc(F)c2[nH]cc(-c3ncc(F)c(N[C@H]4C5CCC(CC5)[C@@H]4C(=O)O)n3)c2c1` (mixture of isomers) (as salt: TFA) [Compound 164] yielded a melting point of over 250 °C.

With `O=C(NC1CCOC1)N[C@@H]1CCC[C@H](Nc2nc(-c3c[nH]c4c(F)cc(F)cc34)ncc2F)C1` (relative stereo) [Compound 15, 1-((1R*,3S*)-3-((2-(5,7-difluoro-1H-indol-3-yl)-5-fluoropyrimidin-4-yl)-amino)cyclohexyl)-3-(tetrahydrofuran-3-yl)urea] the IC50 [1] was 42 nM and the CC50 at 3 days [2] was over 25000 nM.

In the case of `CC(C)(C)C(CC(=O)O)Nc1nc(-c2c[nH]c3c(F)cc(F)cc23)ncc1F` (racemic) [Compound 2], the IC50 [1] is reported as 11 nM and the CC50 at 3 days [2] is reported as 5200 nM.

For `Cn1cnc(C(=O)N[C@@H]2CCC[C@H](Nc3nc(-c4c[nH]c5c(F)cc(F)cc45)c(C#N)cc3F)C2)c1` (racemic) [Compound 3], the IC50 [1] was 5 nM and the CC50 at 3 days [2] was over 25000 nM.

Work on `O=C(NC1COCC(Nc2nc(-c3c[nH]c4c(F)cc(F)cc34)ncc2F)C1)c1cnn[nH]1` (stereo not drawn) [Compound 261, N-(5-((2-(5,7-difluoro-1H-indol-3-yl)-5-fluoropyrimidin-4-yl)amino)-tetrahydro-2H-pyran-3-yl)-1H-1,2,3-triazole-5-carboxamide] yielded an IC50 [1] of 1000 nM and a CC50 at 3 days [2] of over 25000 nM.

Compound `Cn1cnc(C(=O)N[C@@H]2CCC[C@H](Nc3nc(-c4c[nH]c5c(F)cc(C#N)cc45)ncc3F)C2)c1` (racemic) [Compound 174] has an IC50 [1] of 10 nM and a CC50 at 3 days [2] of over 25000 nM.

Compound `Cn1cccc1C(=O)N[C@@H]1CCC[C@H](Nc2nc(-c3c[nH]c4c(F)cc(F)cc34)ncc2F)C1` (racemic) [Compound 94] has an IC50 [1] of 5 nM and a CC50 at 3 days [2] of 18400 nM.

For `Cc1cc(F)c2[nH]cc(-c3ncc(F)c(N[C@H]4C5CCC(CC5)[C@@H]4C(=O)O)n3)c2c1` (racemic) [Compound 164], the IC50 [1] was 11 nM and the CC50 at 3 days [2] was 1700 nM.

Compound `CC(C)(C)C(Cc1nnn[nH]1)Nc1nc(-c2c[nH]c3c(F)cc(F)cc23)ncc1F` (stereo not drawn) [Compound 19, 2-(5,7-difluoro-1H-indol-3-yl)-N-(3,3-dimethyl-1-(1H-tetrazol-5-yl)butan-2-yl)-5-fluoropyrimidin-4-amine] has an IC50 [1] of 160 nM and a CC50 at 3 days [2] of 3700 nM.

Compound `CCn1ccnc1C(=O)N[C@@H]1CCC[C@H](Nc2nc(-c3c[nH]c4c(F)cc(F)cc34)ncc2F)C1` [Compound 125] has an IC50 [1] of 4 nM and a CC50 at 3 days [2] of 10200 nM.

`O=C(O)[C@H]1[C@@H]2CC[C@@H](C2)[C@@H]1Nc1nc(-c2c[nH]c3c(F)cc(F)cc23)ncc1F` (racemic) [Compound 217, (+/−)-(2-exo, 3-endo)-3-((2-(5,7-difluoro-1H-indol-3-yl)-5-fluoropyrimidin-4-yl)amino)bicyclo[2.2.1]heptane-2-carboxylic Acid] showed an IC50 [1] of 22 nM and a CC50 at 3 days [2] of 5000 nM.

Compound `CC[C@@]1(C(=O)O)CCCC[C@H]1Nc1nc(-c2c[nH]c3c(F)cc(F)cc23)ncc1F` [Compound 253] has an IC50 [1] of 120 nM and a CC50 at 3 days [2] of 15200 nM.

With `Cn1nc(N)cc1C(=O)N[C@@H]1CCC[C@H](Nc2nc(-c3c[nH]c4c(F)cc(F)cc34)ncc2F)C1` [Compound 85] the IC50 [1] was 2 nM and the CC50 at 3 days [2] was over 25000 nM.

In the case of `Cn1nc(NS(N)(=O)=O)cc1C(=O)N[C@@H]1CCC[C@H](Nc2nc(-c3c[nH]c4c(F)cc(F)cc34)ncc2F)C1` (relative stereo) [Compound 227, N-((1R*,3S*)-3-((2-(5,7-difluoro-1H-indol-3-yl)-5-fluoropyrimidin-4-yl)-amino)cyclohexyl)-1-methyl-3-(sulfamoylamino)-1H-pyrazole-5-carboxamide], the IC50 [1] is reported as 15 nM and the CC50 at 3 days [2] is reported as over 25000 nM.

For `CC(C)(C)[C@H](CC(=O)O)Nc1nc(-c2c[nH]c3c(F)cc(F)cc23)c(C(F)(F)F)cc1F` (single isomer, unassigned) [Compound 17, (S*)-3-((6-(5,7-difluoro-1H-indol-3-yl)-3-fluoro-5-(trifluoromethyl)pyridin-2-yl)amino)-4,4-dimethylpentanoic acid], the IC50 [1] was 37 nM and the CC50 at 3 days [2] was 6200 nM.

`Cn1cnc(C(=O)N[C@H]2CCC[C@@H](Nc3nc(-c4c[nH]c5c(F)cc(F)cc45)c(C(F)(F)F)cc3F)C2)c1` (relative stereo) [Compound 16, N-((1S*,3R*)-3-((6-(5,7-difluoro-1H-indol-3-yl)-3-fluoro-5-(trifluoromethyl)pyridin-2-yl)amino)cyclohexyl)-1-methyl-1H-imidazole-4-carboxamide] gave an IC50 [1] of 22 nM and a CC50 at 3 days [2] of 3900 nM.

In the case of `O=C(N[C@H]1CCC[C@@H](Nc2nc(-c3c[nH]c4c(F)cc(F)cc34)c(-c3nnc[nH]3)cc2F)C1)N1CCCC1` (racemic) [Compound 24], the IC50 [1] is reported as 420 nM and the CC50 at 3 days [2] is reported as over 25000 nM.

In the case of `CC(C)(C)[C@@H](CO)Nc1nc(-c2c[nH]c3c(F)cc(F)cc23)c(C#N)cc1F` [Compound 257, (S)-2-(5,7-difluoro-1H-indol-3-yl)-5-fluoro-6-((1-hydroxy-3,3-dimethyl-butan-2-yl)amino)nicotinonitrile], the IC50 [1] is reported as 130 nM and the CC50 at 3 days [2] is reported as 7000 nM.

`CC(C)(C)C(CC(=O)O)Nc1nc(-c2c[nH]c3c(F)cc(Cl)cc23)ncc1F` (stereo not drawn) [Compound 39] showed an IC50 [1] of 11 nM and a CC50 at 3 days [2] of 860 nM.

With `O=C(N[C@H]1CCC[C@@H](Nc2nc(-c3c[nH]c4c(F)cc(F)cc34)c(C(F)(F)F)cc2F)C1)c1ncn[nH]1` (racemic) [Compound 178] the IC50 [1] was 10 nM and the CC50 at 3 days [2] was 2600 nM.

`Cc1cc(C(=O)N[C@@H]2CCC[C@@H](Nc3nc(-c4c[nH]c5c(F)cc(F)cc45)c(C#N)cc3F)C2)no1` [Compound 204] showed an IC50 [1] of 10 nM and a CC50 at 3 days [2] of 6800 nM.

Work on `O=C(N[C@@H]1CCC[C@H](Nc2nc(-c3c[nH]c4c(F)ccc(F)c34)ncc2F)C1)N1CCCC1` (racemic) [Compound 7] yielded an IC50 [1] of 460 nM and a CC50 at 3 days [2] of over 25000 nM.

In the case of `Cn1cnc(C(=O)N[C@H]2CCC[C@@H](Nc3nc(-c4c[nH]c5c(F)cc(Cl)cc45)c(C#N)cc3F)C2)c1` (racemic) [Compound 189], the IC50 [1] is reported as 4 nM and the CC50 at 3 days [2] is reported as 7300 nM.

With `C[C@@H]1CC[C@H](C)N1C(=O)N[C@H]1CCC[C@@H](Nc2nc(-c3c[nH]c4c(F)cc(F)cc34)ncc2F)C1` (relative stereo) [Compound 13, N-((1R*,3S*)-3-((2-(5,7-difluoro-1H-indol-3-yl)-5-fluoropyrimidin-4-yl)-amino)cyclohexyl)-cis-2,5-dimethylpyrrolidine-1-carboxamide] the IC50 [1] was 44 nM and the CC50 at 3 days [2] was 10700 nM.

In the case of `N#Cc1cc(F)c(N[C@H]2CCC[C@@H](NC(=O)[C@@H](O)c3ccccc3)C2)nc1-c1c[nH]c2c(F)cc(F)cc12` [Compound 213], the IC50 [1] is reported as 390 nM and the CC50 at 3 days [2] is reported as 3400 nM.

`Cn1cnc(C(=O)NC2CC(Nc3nc(-c4c[nH]c5c(F)cc(F)cc45)ncc3F)CC(C)(C)C2)c1` (stereo not drawn) [Compound 202, N-(5-((2-(5,7-difluoro-1H-indol-3-yl)-5-fluoropyrimidin-4-yl)amino)-3,3-dimethylcyclohexyl)-1-methyl-1H-imidazole-4-carboxamide] showed an IC50 [1] of 790 nM and a CC50 at 3 days [2] of 3900 nM.

For `Cc1[nH]nnc1C(=O)N[C@@H]1CCC[C@H](Nc2nc(-c3c[nH]c4c(F)cc(Cl)cc34)ncc2F)C1` [Compound 78], the IC50 [1] was 2 nM and the CC50 at 3 days [2] was 5700 nM.

Compound `O=C(N[C@@H]1CCC[C@H](Nc2nc(-c3c[nH]c4c(F)cc(F)cc34)ncc2F)C1)N1CCCC1` (racemic) [Compound 1, N-((cis)-3-((2-(5,7-difluoro-1H-indol-3-yl)-5-fluoropyrimidin-4-yl)amino)cyclohexyl)pyrrolidine-1-carboxamide] has an IC50 [1] of 3 nM and a CC50 at 3 days [2] of 10200 nM.

`Cc1nc(C(=O)N[C@@H]2CCC[C@H](Nc3nc(-c4c[nH]c5c(F)cc(F)cc45)ncc3F)C2)c(C)o1` (racemic) [Compound 93] gave an IC50 [1] of 39 nM and a CC50 at 3 days [2] of over 25000 nM.

Compound `CC(C)(C)[C@H](CC(=O)O)Nc1nc(-c2c[nH]c3c(F)cc(Cl)cc23)ncc1F` [Compound 40] has an IC50 [1] of 5 nM and a CC50 at 3 days [2] of 400 nM.

`Cc1cc(C(=O)N[C@@H]2CCC[C@H](Nc3nc(-c4c[nH]c5c(F)cc(F)cc45)ncc3F)C2)nn1C` (racemic) [Compound 96] gave an IC50 [1] of 5 nM and a CC50 at 3 days [2] of 10500 nM.

With `Cn1cnc(C(=O)N[C@@H]2CCC[C@H](Nc3nc(-c4c[nH]c5c(F)cc(Cl)cc45)c(C#N)cc3F)C2)c1` [Compound 185] the IC50 [1] was 4 nM and the CC50 at 3 days [2] was 10200 nM.

Work on `O=C(O)c1cccc(C(=O)N[C@@H]2CCC[C@H](Nc3nc(-c4c[nH]c5c(F)cc(F)cc45)ncc3F)C2)n1` [Compound 157] yielded an IC50 [1] of 330 nM and a CC50 at 3 days [2] of over 25000 nM.

`N#Cc1cc(F)c2[nH]cc(-c3ncc(F)c(N[C@H]4CCC[C@@H](NC(=O)c5ccccn5)C4)n3)c2c1` (racemic) [Compound 173] showed an IC50 [1] of 13 nM and a CC50 at 3 days [2] of over 25000 nM.

In the case of `CC(C)(C)[C@H](CC(=O)O)Nc1nc(-c2c[nH]c3c(F)cc(F)cc23)ncc1F` [Compound 186], the IC50 [1] is reported as 10 nM and the CC50 at 3 days [2] is reported as 3800 nM.

With `O=C(N[C@@H]1CCC[C@H](Nc2nc(-c3c[nH]c4c(F)cc(C(F)(F)F)cc34)ncc2F)C1)c1ccccn1` (racemic) [Compound 263] the IC50 [1] was 15 nM and the CC50 at 3 days [2] was 3900 nM.

For `COCc1cc(C(=O)N[C@@H]2CCC[C@H](Nc3nc(-c4c[nH]c5c(F)cc(F)cc45)ncc3F)C2)no1` [Compound 87], the IC50 [1] was 40 nM and the CC50 at 3 days [2] was 2400 nM.
